# Measurements as given in patent US8906852B2 (MethylGene Inc., priority 2010, dated 2014).
# Molecular target: T1, VEGFR/KDR (Homo sapiens, UniProt P35968)
# T1 construct: made in house; host or cells: Sf9 cells (Spodoptera frugiperda), baculovirus
# Assay: VEGFR/KDR kinase inhibition, DELFIA assay
# Format: biochemical
# Details: ATP 0.6 uM (2x Km), enzyme 5 nM
# In short: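 DELFIA time-resolved fluorescence readout using Europium-tagged anti-phosphotyrosine antibody after EDTA stop. Kinase reaction on plate-bound poly(Glu4,Tyr) ran 10-30 min at 30° C with 5 nM enzyme and 0.6 uM ATP (2× Km), following 4 min on-ice pre-incubation with compound; IC50 over a concentration range.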
# T1 sequence (P35968 806-1356): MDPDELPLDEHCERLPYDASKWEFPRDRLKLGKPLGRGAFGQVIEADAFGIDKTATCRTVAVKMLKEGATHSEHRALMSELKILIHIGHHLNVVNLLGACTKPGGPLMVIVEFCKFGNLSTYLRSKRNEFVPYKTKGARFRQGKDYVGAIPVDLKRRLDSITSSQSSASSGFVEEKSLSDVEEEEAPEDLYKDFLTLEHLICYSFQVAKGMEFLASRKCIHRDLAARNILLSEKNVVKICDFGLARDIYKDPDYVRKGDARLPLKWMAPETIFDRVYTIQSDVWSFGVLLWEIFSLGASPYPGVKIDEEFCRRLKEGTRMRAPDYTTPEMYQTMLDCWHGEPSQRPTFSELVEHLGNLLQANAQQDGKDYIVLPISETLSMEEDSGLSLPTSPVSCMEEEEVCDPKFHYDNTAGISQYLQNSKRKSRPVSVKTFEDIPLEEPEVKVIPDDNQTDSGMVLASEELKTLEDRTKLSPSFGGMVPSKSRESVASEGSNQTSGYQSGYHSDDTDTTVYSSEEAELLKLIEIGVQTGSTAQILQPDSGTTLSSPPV
row,IC50 [nM],SMILES
1,< 50,"CC(C)(C)OC(=O)N[C@H]1CCN(Cc2ccc(-c3cc4nccc(Oc5ccc(NC(=O)NC6CC6)cc5F)c4s3)nc2)C1 [Compound 480, (S)-tert-butyl 1-((6-(7-(4-(3-cyclopropylureido)-2-fluorophenoxy)thieno[3,2-b]pyridin-2-yl)pyridin-3-yl)methyl)pyrrolidin-3-ylcarbamate]"
2,< 50,"CC(C)(C)OC(=O)N[C@@H]1CCN(Cc2ccc(-c3cc4nccc(Oc5ccc(NC(=O)NC6CC6)cc5F)c4s3)nc2)C1 [Compound 481, (R)-tert-butyl 1-((6-(7-(4-(3-cyclopropylureido)-2-fluorophenoxy)thieno[3,2-b]pyridin-2-yl)pyridin-3-yl)methyl)pyrrolidin-3-ylcarbamate]"
3,< 50,"CN1CCN(C(=O)C2CCN(Cc3ccc(-c4cc5nccc(Oc6ccc(NC(=O)NC7CC7)cc6F)c5s4)nc3)CC2)CC1 [Compound 482, 1-cyclopropyl-3-(3-fluoro-4-(2-(5-((4-(4-methylpiperazine-1-carbonyl)piperidin-1-yl)methyl)pyridin-2-yl)thieno[3,2-b]pyridin-7-yloxy)phenyl)urea]"
4,< 50,"O=C(Nc1ccc(Oc2ccnc3cc(-c4ccc(CN5CCC(C(=O)NCCO)CC5)cn4)sc23)c(F)c1)NC1CC1 [Compound 483, 1-((6-(7-(4-(3-cyclopropylureido)-2-fluorophenoxy)thieno[3,2-b]pyridin-2-yl)pyridin-3-yl)methyl)-N-(2-hydroxyethyl)piperidine-4-carboxamide]"
5,< 50,CN(CCO)C(=O)C1CCN(Cc2ccc(-c3cc4nccc(Oc5ccc(NC(=O)NC6CC6)cc5F)c4s3)nc2)CC1 [Compound 484]
6,< 50,"O=C(Nc1ccc(Oc2ccnc3cc(-c4ccc(CN5CCC[C@H]5C(=O)NCCO)cn4)sc23)c(F)c1)NC1CC1 [Compound 485, (S)-1-((6-(7-(4-(3-cyclopropylureido)-2-fluorophenoxy)thieno[3,2-b]pyridin-2-yl)pyridin-3-yl)methyl)-N-(2-hydroxyethyl)pyrrolidine-2-carboxamide]"
7,< 50,"CN(CCO)C(=O)[C@@H]1CCCN1Cc1ccc(-c2cc3nccc(Oc4ccc(NC(=O)NC5CC5)cc4F)c3s2)nc1 [Compound 486, (S)-1-((6-(7-(4-(3-cyclopropylureido)-2-fluorophenoxy)thieno[3,2-b]pyridin-2-yl)pyridin-3-yl)methyl)-N-(2-hydroxyethyl)-N-methylpyrrolidine-2-carboxamide]"
8,< 50,"CN(C)CCNC(=O)[C@@H]1CCCN1Cc1ccc(-c2cc3nccc(Oc4ccc(NC(=O)NC5CC5)cc4F)c3s2)nc1 [Compound 487, (S)-1-((6-(7-(4-(3-cyclopropylureido)-2-fluorophenoxy)thieno[3,2-6]pyridin-2-yl)pyridin-3-yl)methyl)-N-(2-(dimethylamino)ethyl) pyrrolidine-2-carboxamide]"
9,< 50,"CN1CCN(C(=O)[C@@H]2CCCN2Cc2ccc(-c3cc4nccc(Oc5ccc(NC(=O)NC6CC6)cc5F)c4s3)nc2)CC1 [Compound 488, (S)-1-cyclopropyl-3-(3-fluoro-4-(2-(5-((2-(4-methylpiperazine-1-carbonyl)pyrrolidin-1-yl)methyl)pyridin-2-yl)thieno[3,2-b]pyridin-7-yloxy)phenyl)urea]"
10,< 50,"CN1CCN(C(=O)C2CN(Cc3ccc(-c4cc5nccc(Oc6ccc(NC(=O)NC7CC7)cc6F)c5s4)nc3)C2)CC1 [Compound 489, 1-cyclopropyl-3-(3-fluoro-4-(2-(5-((3-(4-methylpiperazine-1-carbonyl)azetidin-1-yl)methyl)pyridin-2-yl)thieno[3,2-b]pyridin-7-yloxy)phenyl)urea]"
11,< 50,"CN(C)CCNC(=O)C1CN(Cc2ccc(-c3cc4nccc(Oc5ccc(NC(=O)NC6CC6)cc5F)c4s3)nc2)C1 [Compound 490, 1-((6-(7-(4-(3-cyclopropylureido)-2-fluorophenoxy)thieno[3,2-b]pyridin-2-yl)pyridin-3-yl)methyl)-N-(2-(dimethylamino)ethyl)azetidine-3-carboxamide]"
